System in one data set: not listed separately
In words: Bioavailability in ferret. Particulars: in vivo.
For `CCCC[C@H](O[C@@H](Cc1ccccc1)C(=O)N1CCC(OCOC)CC1)C(=O)N[C@@H](CC1CCCCC1)[C@@H](O)C[C@H](C(=O)NCCCN(C)C)C(C)C`, the bioavailability (usually dose-corrected exposure relative to a reference, in per cent) turned out to be 50%.
Compound `CCCC[C@H](N[C@@H](Cc1ccccc1)C(=O)N1CCC(OCOC)CC1)C(=O)N[C@@H](CC1CCCCC1)[C@@H](O)C[C@H](C(=O)NCCCN1CCOCC1)C(C)C` had a bioavailability of 34%.

The test system of another data set is Mustela putorius furo. Nature of the data set: Average area under curve value dosed at 0.3 mg/kg, iv in ferrets. The settings on record: ferret, in vivo.
Compound `CCCC[C@H](O[C@@H](Cc1ccccc1)C(=O)N1CCC(OCOC)CC1)C(=O)N[C@@H](CC1CCCCC1)[C@@H](O)C[C@H](C(=O)NCCCN(C)C)C(C)C` gave an Average AUC of 34.4 µg·min/mL.
`CCCC[C@H](N[C@@H](Cc1ccccc1)C(=O)N1CCC(OCOC)CC1)C(=O)N[C@@H](CC1CCCCC1)[C@@H](O)C[C@H](C(=O)NCCCN1CCOCC1)C(C)C` gave an Average AUC of 40.9 µg·min/mL.

System in the next data set: not listed separately
Nature of the data set: Average peak plasma drug concentration after id dose of 10 mg/kg in ferrets(Plasma samples collected from arterial blood). The settings on record: ferret, in vivo.
Turning to `CCCC[C@H](N[C@@H](Cc1ccccc1)C(=O)N1CCC(OCOC)CC1)C(=O)N[C@@H](CC1CCCCC1)[C@@H](O)C[C@H](C(=O)NCCCN1CCOCC1)C(C)C`, the Cmax (commonly the maximum level reached in the sampled fluid or tissue) is 3490 ng/mL.

The same data set, now with this note: ferret, plasma (from arterial blood).
Consider `CCCC[C@H](O[C@@H](Cc1ccccc1)C(=O)N1CCC(OCOC)CC1)C(=O)N[C@@H](CC1CCCCC1)[C@@H](O)C[C@H](C(=O)NCCCN(C)C)C(C)C`, for which the Cmax is 5050 ng/mL.

System in the next data set: not listed separately
Nature of the data set: Average peak plasma drug concentration after id dose of 10 mg/kg in ferrets(Plasma samples collected from portal blood). The settings on record: ferret, in vivo.
In turn, `CCCC[C@H](N[C@@H](Cc1ccccc1)C(=O)N1CCC(OCOC)CC1)C(=O)N[C@@H](CC1CCCCC1)[C@@H](O)C[C@H](C(=O)NCCCN1CCOCC1)C(C)C` had a Cmax of 4350 ng/mL.

The data set is the same for the next values; noted with them: ferret, plasma (from portal blood).
`CCCC[C@H](O[C@@H](Cc1ccccc1)C(=O)N1CCC(OCOC)CC1)C(=O)N[C@@H](CC1CCCCC1)[C@@H](O)C[C@H](C(=O)NCCCN(C)C)C(C)C` returned a Cmax of 4990 ng/mL.

System in the next data set: not listed separately
Nature of the data set: Average peak plasma drug concentration after iv dose of 0.3 mg/kg in ferrets. Particulars: ferret, in vivo.
With `CCCC[C@H](N[C@@H](Cc1ccccc1)C(=O)N1CCC(OCOC)CC1)C(=O)N[C@@H](CC1CCCCC1)[C@@H](O)C[C@H](C(=O)NCCCN1CCOCC1)C(C)C`, the Cmax stood at 1310 ng/mL.

The data set is the same for the next values; noted with them: ferret, plasma.
`CCCC[C@H](O[C@@H](Cc1ccccc1)C(=O)N1CCC(OCOC)CC1)C(=O)N[C@@H](CC1CCCCC1)[C@@H](O)C[C@H](C(=O)NCCCN(C)C)C(C)C` registered a Cmax of 2990 ng/mL.

In the next data set the test system is Mustela putorius furo. Nature of the data set: Average area under curve value dosed at 10 mg/kg, id in ferrets. Particulars: ferret, in vivo, other.
On to `CCCC[C@H](O[C@@H](Cc1ccccc1)C(=O)N1CCC(OCOC)CC1)C(=O)N[C@@H](CC1CCCCC1)[C@@H](O)C[C@H](C(=O)NCCCN(C)C)C(C)C`, for which the Average AUC stood at 580 µg·min/mL.
The same measure, in the same setting: the same measure for `CCCC[C@H](N[C@@H](Cc1ccccc1)C(=O)N1CCC(OCOC)CC1)C(=O)N[C@@H](CC1CCCCC1)[C@@H](O)C[C@H](C(=O)NCCCN1CCOCC1)C(C)C`: 462 µg·min/mL.

System in a further data set: not listed separately
In words: Partition coefficient (logD6.5). The settings on record: octanol/water, pH 6.5.
For the compound `CCCC[C@H](O[C@@H](Cc1ccccc1)C(=O)N1CCC(OCOC)CC1)C(=O)N[C@@H](CC1CCCCC1)[C@@H](O)C[C@H](C(=O)NCCCN(C)C)C(C)C`, the pH-dependent lipophilicity (logD) (usually lipophilicity at a set pH, counting ionised and neutral species) came to 2.3.
`CCCC[C@H](N[C@@H](Cc1ccccc1)C(=O)N1CCC(OCOC)CC1)C(=O)N[C@@H](CC1CCCCC1)[C@@H](O)C[C@H](C(=O)NCCCN(C)C)C(C)C`: the logD was 2.2.
`CCCC[C@H](N[C@@H](Cc1ccccc1)C(=O)N1CCC(OCOC)CC1)C(=O)N[C@@H](CC1CCCCC1)[C@@H](O)C[C@H](NC(=O)OCCN1CCOCC1)C(C)C` had a pH-dependent lipophilicity (logD) of 3.9.
`CCCC[C@H](O[C@@H](Cc1ccccc1)C(=O)N1CCC(OCOC)CC1)C(=O)N[C@@H](CC1CCCCC1)[C@@H](O)C[C@H](C(=O)N(C)CCN(C)C)C(C)C` registered a pH-dependent lipophilicity (logD) of 3.3.
For `CCCC[C@H](O[C@@H](Cc1ccccc1)C(=O)N1CCC(OCOC)CC1)C(=O)N[C@@H](CC1CCCCC1)[C@@H](O)C[C@H](C(=O)N(C)CCCN(C)C)C(C)C`, the logD came to 2.5.
Same read-out and setting: the same measure for `CCCC[C@H](N[C@@H](Cc1ccccc1)C(=O)N1CCC(OCOC)CC1)C(=O)N[C@@H](CC1CCCCC1)[C@@H](O)C[C@H](C(=O)NCCCN1CCOCC1)C(C)C`: 3.9; for `CCCC[C@H](O[C@@H](Cc1ccccc1)C(=O)N1CCC(OCOC)CC1)C(=O)N[C@@H](CC1CCCCC1)[C@@H](O)C[C@H](NC(=O)OCCCN(C)C)C(C)C`: 2.9; for `CCCC[C@H](O[C@@H](Cc1ccccc1)C(=O)N1CCC(OCOC)CC1)C(=O)N[C@@H](CC1CCCCC1)[C@@H](O)C[C@H](C(=O)N1CCCN(C)CC1)C(C)C`: 3.7.

System in another data set: not listed separately
Nature of the data set: Partition coefficient (logD7.4). Particulars: octanol/water, pH 7.4.
On to `CCCC[C@H](O[C@@H](Cc1ccccc1)C(=O)N1CCC(OCOC)CC1)C(=O)N[C@@H](CC1CCCCC1)[C@@H](O)C[C@H](C(=O)NCCCN(C)C)C(C)C`, for which the logD is 3.1.
Compound `CCCC[C@H](N[C@@H](Cc1ccccc1)C(=O)N1CCC(OCOC)CC1)C(=O)N[C@@H](CC1CCCCC1)[C@@H](O)C[C@H](C(=O)NCCCN(C)C)C(C)C` had a pH-dependent lipophilicity (logD) of 2.8.
Take `CCCC[C@H](N[C@@H](Cc1ccccc1)C(=O)N1CCC(OCOC)CC1)C(=O)N[C@@H](CC1CCCCC1)[C@@H](O)C[C@H](NC(=O)OCCN1CCOCC1)C(C)C`: the pH-dependent lipophilicity (logD) was 4.3.
For the compound `CCCC[C@H](O[C@@H](Cc1ccccc1)C(=O)N1CCC(OCOC)CC1)C(=O)N[C@@H](CC1CCCCC1)[C@@H](O)C[C@H](C(=O)N(C)CCN(C)C)C(C)C`, the logD was greater than 5.
The compound `CCCC[C@H](O[C@@H](Cc1ccccc1)C(=O)N1CCC(OCOC)CC1)C(=O)N[C@@H](CC1CCCCC1)[C@@H](O)C[C@H](C(=O)N(C)CCCN(C)C)C(C)C` returned a logD of 3.7.
Compound `CCCC[C@H](N[C@@H](Cc1ccccc1)C(=O)N1CCC(OCOC)CC1)C(=O)N[C@@H](CC1CCCCC1)[C@@H](O)C[C@H](C(=O)NCCCN1CCOCC1)C(C)C` showed a logD of 4.5.
In turn, `CCCC[C@H](O[C@@H](Cc1ccccc1)C(=O)N1CCC(OCOC)CC1)C(=O)N[C@@H](CC1CCCCC1)[C@@H](O)C[C@H](NC(=O)OCCCN(C)C)C(C)C` showed a logD of 3.8.

For the next data set, the target named is T1, Renin (Homo sapiens, UniProt P00797).
T1 sequence (P00797 whole entry): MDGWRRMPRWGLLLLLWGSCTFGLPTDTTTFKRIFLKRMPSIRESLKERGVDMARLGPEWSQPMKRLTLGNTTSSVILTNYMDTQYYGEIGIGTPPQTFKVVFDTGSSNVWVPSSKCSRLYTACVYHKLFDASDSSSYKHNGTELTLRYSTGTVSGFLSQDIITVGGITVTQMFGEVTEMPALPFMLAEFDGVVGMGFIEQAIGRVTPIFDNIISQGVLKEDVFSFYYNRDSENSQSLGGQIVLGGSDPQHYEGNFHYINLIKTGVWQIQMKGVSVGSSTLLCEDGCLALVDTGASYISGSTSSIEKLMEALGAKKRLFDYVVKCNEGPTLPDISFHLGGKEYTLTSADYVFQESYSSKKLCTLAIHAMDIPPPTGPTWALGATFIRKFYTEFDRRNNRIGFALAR
It is filed as cell-free, Plasma.
Settings: not given
In the case of `CCCC[C@H](O[C@@H](Cc1ccccc1)C(=O)N1CCC(OCOC)CC1)C(=O)N[C@@H](CC1CCCCC1)[C@@H](O)C[C@H](C(=O)NCCCN(C)C)C(C)C`, the 50% inhibitory concentration (IC50) (as a rule, the point on the concentration scale where inhibition reaches its midpoint) came to 5.9 nM.
In turn, `CCCC[C@H](N[C@@H](Cc1ccccc1)C(=O)N1CCC(OCOC)CC1)C(=O)N[C@@H](CC1CCCCC1)[C@@H](O)C[C@H](C(=O)NCCCN(C)C)C(C)C` registered an IC50 of 6.1 nM.
On to `CCCC[C@H](N[C@@H](Cc1ccccc1)C(=O)N1CCC(OCOC)CC1)C(=O)N[C@@H](CC1CCCCC1)[C@@H](O)C[C@H](NC(=O)OCCN1CCOCC1)C(C)C`, for which half-maximal inhibition (IC50) was put at 9.5 nM.
In turn, `CCCC[C@H](O[C@@H](Cc1ccccc1)C(=O)N1CCC(OCOC)CC1)C(=O)N[C@@H](CC1CCCCC1)[C@@H](O)C[C@H](C(=O)N(C)CCN(C)C)C(C)C` showed an IC50 of 290 nM.
`CCCC[C@H](O[C@@H](Cc1ccccc1)C(=O)N1CCC(OCOC)CC1)C(=O)N[C@@H](CC1CCCCC1)[C@@H](O)C[C@H](C(=O)N(C)CCCN(C)C)C(C)C` had an IC50 of 270 nM.
In turn, `CCCC[C@H](O[C@@H](Cc1ccccc1)C(=O)N1CCC(OCOC)CC1)C(=O)N[C@@H](CC1CCCCC1)[C@@H](O)C[C@H](NC(=O)OCCCN(C)C)C(C)C` displayed an IC50 of 12 nM.
For `CCCC[C@H](O[C@@H](Cc1ccccc1)C(=O)N1CCC(OCOC)CC1)C(=O)N[C@@H](CC1CCCCC1)[C@@H](O)C[C@H](C(=O)N1CCCN(C)CC1)C(C)C`, the IC50 was 79 nM.

In a further data set the target is T1, Renin. Nature of the data set: In vitro activity against human renin (pH 6.0).
Settings: not given
`CCCC[C@H](N[C@@H](Cc1ccccc1)C(=O)N1CCC(OCOC)CC1)C(=O)N[C@@H](CC1CCCCC1)[C@@H](O)C[C@H](C(=O)NCCCN(C)C)C(C)C` displayed an IC50 of 2.1 nM.
For the compound `CCCC[C@H](N[C@@H](Cc1ccccc1)C(=O)N1CCC(OCOC)CC1)C(=O)N[C@@H](CC1CCCCC1)[C@@H](O)C[C@H](NC(=O)OCCN1CCOCC1)C(C)C`, the IC50 was 1.8 nM.
Consider `CCCC[C@H](O[C@@H](Cc1ccccc1)C(=O)N1CCC(OCOC)CC1)C(=O)N[C@@H](CC1CCCCC1)[C@@H](O)C[C@H](C(=O)N(C)CCN(C)C)C(C)C`, for which half-maximal inhibition (IC50) was put at 30 nM.
Regarding `CCCC[C@H](O[C@@H](Cc1ccccc1)C(=O)N1CCC(OCOC)CC1)C(=O)N[C@@H](CC1CCCCC1)[C@@H](O)C[C@H](C(=O)N(C)CCCN(C)C)C(C)C`, the IC50 was determined as 57 nM.
Turning to `CCCC[C@H](O[C@@H](Cc1ccccc1)C(=O)N1CCC(OCOC)CC1)C(=O)N[C@@H](CC1CCCCC1)[C@@H](O)C[C@H](NC(=O)OCCCN(C)C)C(C)C`, the IC50 stood at 2.4 nM.
`CCCC[C@H](O[C@@H](Cc1ccccc1)C(=O)N1CCC(OCOC)CC1)C(=O)N[C@@H](CC1CCCCC1)[C@@H](O)C[C@H](C(=O)N1CCCN(C)CC1)C(C)C` showed a half-inhibitory concentration (IC50) of 17 nM.

The values above are taken from ChEMBL document CHEMBL1126033, “C-terminal modifications of nonpeptide renin inhibitors: improved oral bioavailability via modification of physicochemical properties” (J Med Chem, 1992).
